In the Kinase Knowledgebase extract (Sharma et al. 2016):
Converted amounts (≈) assume the structure as drawn. One block for each compound: values may come before it.

What was measured:
[1] = molecular target: MAPK14 (human) (UniProt Q16539); test: Inhibition of TNF-alpha Production in LPS Stimulated Whole Blood; settings: blood cells
[2] = molecular target: EGFR (UniProt P00533)
[3] = molecular target: EGFR (human) (UniProt P00533); settings: a431
[4] = molecular target: CDK2 (human) (UniProt P24941); test: Enzyme Assay; settings: concentration not given here
[5] = molecular target: MAPK14 (UniProt Q16539); test: p38 Inhibition Assay (in Vitro)
Chain of MAPK14 (Q16539 whole entry, looked up): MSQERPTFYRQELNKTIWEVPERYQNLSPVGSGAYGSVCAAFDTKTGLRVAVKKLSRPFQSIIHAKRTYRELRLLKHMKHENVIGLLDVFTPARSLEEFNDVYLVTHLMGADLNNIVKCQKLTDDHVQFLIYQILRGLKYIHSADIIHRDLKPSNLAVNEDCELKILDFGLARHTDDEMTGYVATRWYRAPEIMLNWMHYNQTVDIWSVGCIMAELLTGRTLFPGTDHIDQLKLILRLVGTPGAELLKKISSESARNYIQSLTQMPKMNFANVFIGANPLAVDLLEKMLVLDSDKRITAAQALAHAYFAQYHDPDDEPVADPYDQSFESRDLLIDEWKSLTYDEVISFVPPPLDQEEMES

[6] = molecular target: ROCK2 (human) (UniProt O75116); test: Inhibition of ROCK2 Kinase Activity; settings: concentration not given here
[7] = molecular target: EGFR (murine) (UniProt P00533); settings: nih 3t3
Chain of EGFR (murine) (P00533 whole entry, looked up): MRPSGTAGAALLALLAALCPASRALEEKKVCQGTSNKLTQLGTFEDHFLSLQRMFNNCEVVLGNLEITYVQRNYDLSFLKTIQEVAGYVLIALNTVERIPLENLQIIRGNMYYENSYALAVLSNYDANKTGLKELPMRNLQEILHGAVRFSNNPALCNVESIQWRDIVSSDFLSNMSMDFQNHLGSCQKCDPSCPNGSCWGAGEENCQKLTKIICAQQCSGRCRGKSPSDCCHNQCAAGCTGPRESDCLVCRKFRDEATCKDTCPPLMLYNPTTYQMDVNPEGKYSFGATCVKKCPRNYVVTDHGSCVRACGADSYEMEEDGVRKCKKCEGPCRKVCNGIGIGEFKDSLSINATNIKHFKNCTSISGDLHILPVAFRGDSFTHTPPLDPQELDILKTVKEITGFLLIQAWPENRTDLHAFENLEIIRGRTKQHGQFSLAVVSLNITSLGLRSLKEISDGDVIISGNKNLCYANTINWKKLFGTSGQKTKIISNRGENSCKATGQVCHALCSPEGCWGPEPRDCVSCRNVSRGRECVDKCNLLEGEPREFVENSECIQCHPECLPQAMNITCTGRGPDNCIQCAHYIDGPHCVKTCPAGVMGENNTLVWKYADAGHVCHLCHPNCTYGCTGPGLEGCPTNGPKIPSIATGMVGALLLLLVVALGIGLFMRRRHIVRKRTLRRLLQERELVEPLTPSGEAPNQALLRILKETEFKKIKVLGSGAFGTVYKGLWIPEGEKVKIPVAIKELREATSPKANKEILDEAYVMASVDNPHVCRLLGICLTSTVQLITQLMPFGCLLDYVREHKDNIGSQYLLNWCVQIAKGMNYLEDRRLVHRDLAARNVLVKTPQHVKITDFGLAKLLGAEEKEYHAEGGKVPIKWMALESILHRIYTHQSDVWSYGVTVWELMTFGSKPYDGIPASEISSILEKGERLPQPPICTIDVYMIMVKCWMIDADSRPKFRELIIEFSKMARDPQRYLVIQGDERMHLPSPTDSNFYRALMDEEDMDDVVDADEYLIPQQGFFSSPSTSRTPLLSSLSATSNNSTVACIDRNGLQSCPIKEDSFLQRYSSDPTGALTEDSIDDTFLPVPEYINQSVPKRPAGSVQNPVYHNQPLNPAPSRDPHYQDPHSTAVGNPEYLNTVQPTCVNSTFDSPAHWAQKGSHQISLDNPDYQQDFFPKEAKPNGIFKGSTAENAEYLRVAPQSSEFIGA

[8] = molecular target: EGFR (human) (UniProt P00533); settings: kb
[9] = molecular target: PIK3CA (human) (UniProt P42336); test: Antiproliferation of NZOV9 Cell Line Using Thymidine Depletion Assay
Chain of PIK3CA (human) (P42336 whole entry, looked up): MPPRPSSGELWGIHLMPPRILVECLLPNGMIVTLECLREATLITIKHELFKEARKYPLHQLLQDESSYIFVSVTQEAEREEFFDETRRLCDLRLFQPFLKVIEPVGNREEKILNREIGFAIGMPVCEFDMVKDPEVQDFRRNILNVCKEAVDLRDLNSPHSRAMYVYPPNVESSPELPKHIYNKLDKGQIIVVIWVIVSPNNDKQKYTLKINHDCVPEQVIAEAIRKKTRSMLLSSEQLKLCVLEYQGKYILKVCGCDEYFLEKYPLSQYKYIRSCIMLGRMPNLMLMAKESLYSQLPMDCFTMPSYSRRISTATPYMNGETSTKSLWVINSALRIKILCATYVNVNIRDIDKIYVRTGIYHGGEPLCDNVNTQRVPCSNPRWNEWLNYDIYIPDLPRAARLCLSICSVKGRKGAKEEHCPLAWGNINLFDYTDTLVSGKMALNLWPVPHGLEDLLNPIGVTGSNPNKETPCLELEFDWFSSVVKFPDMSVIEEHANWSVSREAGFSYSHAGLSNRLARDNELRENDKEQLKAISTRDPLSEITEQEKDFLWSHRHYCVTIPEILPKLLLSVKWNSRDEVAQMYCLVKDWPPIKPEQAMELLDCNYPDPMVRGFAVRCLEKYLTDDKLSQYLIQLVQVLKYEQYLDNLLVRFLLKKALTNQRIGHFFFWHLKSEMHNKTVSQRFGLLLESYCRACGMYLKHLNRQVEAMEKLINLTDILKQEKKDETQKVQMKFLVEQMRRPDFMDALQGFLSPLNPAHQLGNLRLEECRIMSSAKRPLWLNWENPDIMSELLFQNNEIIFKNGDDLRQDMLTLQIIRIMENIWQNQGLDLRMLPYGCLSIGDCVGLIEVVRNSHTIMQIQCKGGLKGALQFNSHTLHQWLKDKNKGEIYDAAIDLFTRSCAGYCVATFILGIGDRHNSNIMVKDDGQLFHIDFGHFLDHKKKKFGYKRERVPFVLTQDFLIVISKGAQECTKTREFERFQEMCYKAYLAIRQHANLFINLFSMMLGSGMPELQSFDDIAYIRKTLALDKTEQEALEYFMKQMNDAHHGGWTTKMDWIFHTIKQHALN

[10] = molecular target: MAPK14 (UniProt Q16539); test: MAPK14 Kinase Inhibition
[11] = molecular target: MAPK14 (UniProt Q16539); test: p38 Inhibition
[12] = molecular target: MAPK14 (UniProt Q16539); test: Inhibition of p38 Kinase Activity
[13] = molecular target: MAPK14 (UniProt Q16539); test: Assessment of MAPK14 Kinase Activity
[14] = molecular target: EGFR (human) (UniProt P00533)
[15] = molecular target: EGFR (human) (UniProt P00533); remark: listed apart in the source
[16] = molecular target: EGFR (human) (UniProt P00533); settings: hn5
[17] = molecular target: EGFR (Balb/c mice) (UniProt P00533)
[18] = molecular target: EGFR (UniProt P00533); remark: listed apart in the source
[19] = test system: PIK3CG (murine); test: Inhibition of C5a-Mediated AKT Phosphorylation in Raw 264.7 Macrophages
[20] = molecular target: EGFR (murine) (UniProt P00533); settings: f/l herc cells
[21] = molecular target: ROCK2 (UniProt O75116); test: Inhibition of ROCK2 Kinase Activity; settings: for inhibition: concentration not given here
[22] = molecular target: EGFR (UniProt P00533); remark: listed apart in the source
[23] = molecular target: MAPK14 (human) (UniProt Q16539); test: p38-alpha Kinase Inhibition; settings: COS-1
[24] = molecular target: EGFR (UniProt P00533); settings: concentration not given here
[25] = molecular target: PIK3CG (UniProt P48736); test: Inhibition of PIK3CG Kinase Activity

Chain of EGFR (human) (P00533 whole entry, looked up): as the sequence (P00533 whole entry, looked up) above
Chain of EGFR (P00533 whole entry, looked up): as above
Chain of MAPK14 (human) (Q16539 whole entry, looked up): as the sequence (Q16539 whole entry, looked up) above

Structure (SMILES): C=CCOCCn1c(SC)nc(-c2ccc(F)cc2)c1-c1ccnc(NC(C)=O)c1
IC50 [1]: > 100000 nM

Structure (SMILES): O=C(NCc1ccc(S(=O)(=O)N2CCC(n3nnc4ccccc43)CC2)s1)c1ccc(Cl)cc1
inhibition [4]: 1%
IC50 [5]: > 30000 nM
inhibition [6]: -1%

Structure (SMILES): O=c1[nH]c2ccc(Sc3ccccc3)nc2[nH]1
IC50 [7]: > 100000 nM

Structure (SMILES): COc1cc2ncnc(Nc3ccc(F)c(Cl)c3F)c2cc1OC1CCN(C(=O)OCCN2CCCC2)CC1
IC50 [8]: 15 nM

Structure (SMILES): Cc1ccc([N+](=O)[O-])cc1S(=O)(=O)N(C)N=Cc1cn(C)c2ccccc12
IC50 [9]: > 20000 nM

Structure (SMILES): CCOC(=O)Nc1nc2ccc(Oc3ccccc3)nc2[nH]1
IC50 [7]: > 100000 nM

Structure (SMILES): Nc1nccc(-c2cccnc2-c2ccc(F)cc2)n1
IC50 [10]: < 50000 nM

Structure (SMILES): CS(=O)(=O)N1CCC(Nc2ncc3c(n2)N2CCN=C2C(c2ccccc2Cl)=C3)CC1
IC50 [13]: 2.7 nM

Structure (SMILES): O=C(/C=C/N1CC2CC1CO2)Nc1cc2c(Nc3ccc(F)c(Cl)c3)ncnc2cc1O[C@H]1CCOC1 (some centres undefined)
IC50 [15]: 0.5 nM

Structure (SMILES): Cc1ccc2ncnc(Nc3cccc(Cl)c3)c2c1
LD50 [17]: > 400 mg/kg

Structure (SMILES): O=C(C=C1CCNCC1)Nc1ccc2ncnc(Nc3ccc4[nH]ccc4c3)c2c1
EC50 [3]: 300 nM

Structure (SMILES): O=C(NCc1ccc(S(=O)(=O)N2CCN(c3ncccn3)CC2)s1)c1ccc(Cl)cc1
IC50 [5]: > 30000 nM

Structure (SMILES): O=C(NCc1ccc(S(=O)(=O)N2CCC(Nc3cccc(S(=O)(=O)C(F)(F)F)c3)CC2)s1)c1ccc(Cl)cc1
IC50 [5]: > 30000 nM

Structure (SMILES): O=C(NCc1ccc(S(=O)(=O)N2CCN(C(=O)N3C=Cc4oncc4C3)CC2)s1)c1ccc(Cl)cc1
IC50 [5]: > 30000 nM

Structure (SMILES): O=C1NC(=O)/C(=C/c2ccc3ncnc(N4CCCCC4)c3c2)S1
inhibition [19]: 100%

Structure (SMILES): CCOC(=O)CN(CCOc1cc2c(Nc3cccc(Br)c3)ncnc2cc1OC)CC(=O)OCC
IC50 [20]: 70 nM

Structure (SMILES): CCOc1cc2ncc(C#N)c(Nc3ccc(OCc4ccccn4)c(Cl)c3)c2cc1NC(=O)C=C1CCNCC1
EC50 [3]: 160 nM

Structure (SMILES): Oc1cc2nc(-c3cccs3)c(-c3cccs3)nc2cc1O
inhibition [21]: -18%

Structure (SMILES): CN(C(=O)NCCCl)c1ccc2ncnc(Nc3cccc(Br)c3)c2c1
IC50 [22]: 156 nM

Structure (SMILES): O=C(NCc1ccc(S(=O)(=O)NNC(=O)c2csc(COc3ccccc3Cl)n2)s1)c1ccc(Cl)cc1
IC50 [11]: > 30000 nM
IC50 [12]: > 30000 nM

Structure (SMILES): Cc1ccccc1Cc1ccc(Nc2ccc(F)cc2C)cc1Cl
IC50 [23]: > 100000 nM

Structure (SMILES): NC(=O)[C@H]1CCCN1Cc1ccc(-c2cc3c(Nc4ccc(OCc5ccccc5)cc4)ncnc3cn2)o1
IC50 [16]: 350 nM

Structure (SMILES): Cc1cccc(Nc2ncnc3ccc(N(C)C(=O)NCCCl)cc23)c1
IC50 [22]: 1690 nM

Structure (SMILES): O=C(NCc1ccc(S(=O)(=O)NNC(=O)c2csc(-c3ccc(C4SCCS4)cc3)n2)s1)c1ccc(Cl)cc1
IC50 [11]: > 30000 nM
IC50 [12]: > 30000 nM

Structure (SMILES): COc1nccc(-c2cccnc2-c2ccc(F)cc2)n1
IC50 [10]: < 50000 nM

Structure (SMILES): N=C1NC(=O)/C(=C/c2ccc3nccnc3c2)S1
inhibition [19]: 100%

Structure (SMILES): O=C(C=C1CCNC1)Nc1ccc2ncnc(Nc3cccc(Br)c3)c2c1
EC50 [3]: 13000 nM

Structure (SMILES): O=C1NC(=O)/C(=C/c2ccc3c(c2)OCO3)S1
inhibition [19]: 100%

Structure (SMILES): N#C/C(=C1/Nc2ccccc2S1)c1ccnc(NCCc2cccnc2)n1
IC50 [25]: > 10000 nM
IC50 [21]: 5000 to 10000 nM

Structure (SMILES): CCOC(=O)CN(C)CCOc1cc2c(Nc3cccc(Br)c3)ncnc2cc1OC
IC50 [20]: 100 nM

Structure (SMILES): N#Cc1cnc2cc3nc[nH]c3cc2c1Nc1cccc(Br)c1
IC50 [18]: 1.5 nM

Structure (SMILES): CSc1nccc(-c2cccnc2-c2ccc(F)cc2)n1
IC50 [10]: < 50000 nM

Structure (SMILES): O=C1NC(=O)/C(=C/c2ccc3nsnc3c2)S1
inhibition [19]: 100%

Structure (SMILES): COC(=O)Nc1nc2ccc(Oc3ccccc3)nc2[nH]1
IC50 [7]: > 100000 nM

Structure (SMILES): OCCN(CCO)CC1COc2cc3ncnc(Nc4cccc(Br)c4)c3cc2O1 (centres undefined)
IC50 [14]: 0.021 µg/mL (≈ 0.0442 µM)

Structure (SMILES): COC(=O)CCC1CN(CC(=O)OC)CCN1CCOc1cc2c(Nc3cccc(Br)c3)ncnc2cc1OC (centres undefined)
IC50 [20]: 77 nM

Structure (SMILES): O=C(/C=C/CN1CC2CC1CO2)Nc1cc2c(Nc3ccc(F)c(Cl)c3)ncnc2cc1O[C@H]1CCOC1 (some centres undefined)
IC50 [15]: 0.5 nM

Structure (SMILES): CS(=O)(=O)NCCNCc1ccc(-c2cc3c(Nc4ccc(OCc5ccccc5)cc4)ncnc3cn2)o1
IC50 [16]: 720 nM

Structure (SMILES): OCCNCC1COc2cc3ncnc(Nc4cccc(Br)c4)c3cc2O1 (centres undefined)
IC50 [14]: 0.022 µg/mL (≈ 0.051 µM)

Structure (SMILES): N#Cc1cnc2c(sc3ccc([N+](=O)[O-])cc32)c1Nc1cccc(Br)c1
IC50 [18]: 10000 nM

Structure (SMILES): CC(C)(CO)Nc1ncc2cc(-c3ccccc3Cl)c3nccn3c2n1
IC50 [13]: 18.8 nM

Structure (SMILES): O=C(/C=C/CN1CC2CC1CO2)Nc1cc2c(Nc3ccc(F)c(Cl)c3)ncnc2cc1OC1CCCC1 (centres undefined)
IC50 [15]: 0.5 nM

Structure (SMILES): O=c1[nH]c2ccc(Oc3ccccc3)nc2[nH]1
IC50 [7]: > 100000 nM

Results, then the compound that gave them:

IC50 [2]: 200 nM
Structure (SMILES): CN(C)CCCC(=O)N1CCOc2cc3ncc(C#N)c(Nc4ccc(F)c(Cl)c4)c3cc21

EC50 [3]: 13 nM
Structure (SMILES): COCCOc1cc2ncnc(Nc3ccc4[nH]ccc4c3)c2cc1NC(=O)C=C1CCNCC1

IC50 [11]: > 30000 nM
IC50 [12]: > 30000 nM
Structure (SMILES): O=C(CCCNc1ncc(C(F)(F)F)cc1Cl)NNS(=O)(=O)c1ccc(CNC(=O)c2ccc(Cl)cc2)cc1

IC50 [14]: 0.058 µg/mL (≈ 0.123 µM)
Structure (SMILES): CN1CCN(CC2COc3cc4ncnc(Nc5cccc(Br)c5)c4cc3O2)CC1 (centres undefined)

IC50 [2]: 5 nM
Structure (SMILES): CN(C)CCCCN1CCOc2cc3ncc(C#N)c(Nc4ccc(F)c(Cl)c4)c3cc21

IC50 [16]: 460 nM
Structure (SMILES): OCc1ccc(-c2cc3c(Nc4ccc(OCc5ccccc5)cc4)ncnc3cn2)o1

IC50 [18]: 10000 nM
Structure (SMILES): C=CC(=O)Nc1ccc2sc3c(Nc4cccc(Br)c4)c(C#N)cnc3c2c1

IC50 [13]: 1.4 nM
Structure (SMILES): CC(C)Nc1ncc2cc(-c3ccccc3Cl)c3nccn3c2n1

IC50 [5]: > 30000 nM
Structure (SMILES): O=C(NCc1ccc(S(=O)(=O)N2CCC(C(=O)c3ccc(F)cc3F)CC2)s1)c1ccc(Cl)cc1

IC50 [2]: 1000 nM
inhibition ([2]; concentration not given here): 29.9%
Structure (SMILES): N#Cc1cnc2cc3c(cc2c1Nc1ccc(F)c(Cl)c1)N(C(=O)/C=C/CBr)CCO3.N#Cc1cnc2cc3c(cc2c1Nc1ccc(F)c(Cl)c1)N(C(=O)/C=C/CCl)CCO3

IC50 [16]: 350 nM
Structure (SMILES): CN(CC(N)=O)Cc1ccc(-c2cc3c(Nc4ccc(OCc5ccccc5)cc4)ncnc3cn2)o1

IC50 [21]: 600 nM
Structure (SMILES): NS(=O)(=O)c1ccc(Nc2nc(OCC3CCCCC3)c3nc[nH]c3n2)cc1

IC50 [13]: 6620 nM
Structure (SMILES): O[C@H]1CC[C@H](Nc2ncc3c(n2)N2CCN=C2N(c2ccccc2Cl)C3)CC1

IC50 [20]: 33 nM
Structure (SMILES): CCOC(=O)CN1CCN(CCCOc2cc3c(Nc4cccc(Br)c4)ncnc3cc2OC)C(O)C1 (centres undefined)

inhibition [24]: > 50%
inhibition [21]: > 50%
Structure (SMILES): NC(=O)c1c(NC(=O)Nc2ccccc2)sc2cc(O)ccc12

IC50 [10]: < 50000 nM
Structure (SMILES): Fc1ccc(-c2ncccc2-c2ccnc(Oc3ccccc3)n2)cc1

IC50 [22]: 81 nM
Structure (SMILES): CN(C(=O)NCCCl)c1ccc2ncnc(Nc3cccc(Cl)c3)c2c1

IC50 [12]: > 30000 nM
Structure (SMILES): O=C(CCCNc1ncc(C(F)(F)F)cc1Cl)NNS(=O)(=O)c1ccc(CNC(=O)c2ccccc2O)s1

IC50 [8]: 35 nM
Structure (SMILES): COC(=O)N1CCC(Oc2cc3c(Nc4cccc(Cl)c4F)ncnc3cc2OC)CC1

IC50 [22]: 1000 nM
Structure (SMILES): Cc1cccc(Nc2ncnc3ccc(N)cc23)c1

IC50 [14]: 0.046 µg/mL (≈ 0.101 µM)
Structure (SMILES): Brc1cccc(Nc2ncnc3cc4c(cc23)OC(CN2CCOCC2)CO4)c1 (centres undefined)

IC50 [10]: < 50000 nM
Structure (SMILES): Cc1ccccc1Nc1nccc(-c2cccnc2-c2ccc(F)cc2)n1

IC50 [12]: > 30000 nM
Structure (SMILES): NC(=O)c1cccn(Cc2ccc(S(=O)(=O)NNC(=O)CCCNc3ncc(C(F)(F)F)cc3Cl)s2)c1=O

IC50 [16]: 3300 nM
Structure (SMILES): CN(C)C(=O)[C@@H]1CCCN1Cc1ccc(-c2cc3c(Nc4ccc(OCc5ccccc5)cc4)ncnc3cn2)o1

IC50 [15]: 1.5 nM
Structure (SMILES): O=C(/C=C/CN1CC2CC1CO2)Nc1cc2c(Nc3ccc(F)c(Cl)c3)ncnc2cc1OCC1CC1 (centres undefined)

IC50 [20]: 20 nM
Structure (SMILES): CCOC(=O)CN1CCC[C@H]1COc1cc2c(Nc3cccc(Br)c3)ncnc2cc1OC

IC50 [8]: 9 nM
Structure (SMILES): COc1cc2ncnc(Nc3cccc(Cl)c3F)c2cc1OC1CCN(C(=O)OCCN2CCCC2)CC1

IC50 [18]: 10000 nM
Structure (SMILES): N#Cc1cnc2c(sc3ccc(N)cc32)c1Nc1cccc(Br)c1
